This is an account of results in patent US12122764B2, “IKAROS zinc finger family degraders and uses thereof” (Gilead Sciences, Inc., priority 2021, dated 2024).

The target in the first experiment is T1, IKZF2 (Homo sapiens, UniProt Q96SW2+Q9UKS7).
T1 construct: expressed in transfected cells
T1 sequence (Q9UKS7 1-500 isoform Q9UKS7-2): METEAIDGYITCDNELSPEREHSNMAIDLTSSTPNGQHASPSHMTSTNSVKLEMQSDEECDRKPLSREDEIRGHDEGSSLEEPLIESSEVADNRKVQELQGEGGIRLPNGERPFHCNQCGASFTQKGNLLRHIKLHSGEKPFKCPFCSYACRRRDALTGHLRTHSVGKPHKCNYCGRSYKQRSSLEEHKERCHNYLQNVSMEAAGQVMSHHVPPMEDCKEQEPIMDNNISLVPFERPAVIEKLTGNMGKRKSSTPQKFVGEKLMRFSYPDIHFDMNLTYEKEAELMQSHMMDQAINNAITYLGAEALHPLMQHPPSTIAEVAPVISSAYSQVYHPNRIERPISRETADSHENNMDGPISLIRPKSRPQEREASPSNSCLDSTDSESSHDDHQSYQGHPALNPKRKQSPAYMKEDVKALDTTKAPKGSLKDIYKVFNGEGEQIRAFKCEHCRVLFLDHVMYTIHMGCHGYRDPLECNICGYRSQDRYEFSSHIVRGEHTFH
T1 sequence (Q96SW2 whole entry): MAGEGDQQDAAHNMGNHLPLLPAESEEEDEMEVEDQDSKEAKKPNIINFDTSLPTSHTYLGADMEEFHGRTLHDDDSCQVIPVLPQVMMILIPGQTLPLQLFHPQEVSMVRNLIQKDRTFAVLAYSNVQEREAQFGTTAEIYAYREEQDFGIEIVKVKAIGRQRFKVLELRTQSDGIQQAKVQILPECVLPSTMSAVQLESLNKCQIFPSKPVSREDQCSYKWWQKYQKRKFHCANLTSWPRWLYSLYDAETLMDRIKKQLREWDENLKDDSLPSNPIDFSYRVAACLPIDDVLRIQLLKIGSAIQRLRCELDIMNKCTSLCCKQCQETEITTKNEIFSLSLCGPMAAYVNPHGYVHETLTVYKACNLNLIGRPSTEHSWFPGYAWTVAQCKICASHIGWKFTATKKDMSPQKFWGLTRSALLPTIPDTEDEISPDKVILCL
T1 sequence (Q16531 whole entry partner): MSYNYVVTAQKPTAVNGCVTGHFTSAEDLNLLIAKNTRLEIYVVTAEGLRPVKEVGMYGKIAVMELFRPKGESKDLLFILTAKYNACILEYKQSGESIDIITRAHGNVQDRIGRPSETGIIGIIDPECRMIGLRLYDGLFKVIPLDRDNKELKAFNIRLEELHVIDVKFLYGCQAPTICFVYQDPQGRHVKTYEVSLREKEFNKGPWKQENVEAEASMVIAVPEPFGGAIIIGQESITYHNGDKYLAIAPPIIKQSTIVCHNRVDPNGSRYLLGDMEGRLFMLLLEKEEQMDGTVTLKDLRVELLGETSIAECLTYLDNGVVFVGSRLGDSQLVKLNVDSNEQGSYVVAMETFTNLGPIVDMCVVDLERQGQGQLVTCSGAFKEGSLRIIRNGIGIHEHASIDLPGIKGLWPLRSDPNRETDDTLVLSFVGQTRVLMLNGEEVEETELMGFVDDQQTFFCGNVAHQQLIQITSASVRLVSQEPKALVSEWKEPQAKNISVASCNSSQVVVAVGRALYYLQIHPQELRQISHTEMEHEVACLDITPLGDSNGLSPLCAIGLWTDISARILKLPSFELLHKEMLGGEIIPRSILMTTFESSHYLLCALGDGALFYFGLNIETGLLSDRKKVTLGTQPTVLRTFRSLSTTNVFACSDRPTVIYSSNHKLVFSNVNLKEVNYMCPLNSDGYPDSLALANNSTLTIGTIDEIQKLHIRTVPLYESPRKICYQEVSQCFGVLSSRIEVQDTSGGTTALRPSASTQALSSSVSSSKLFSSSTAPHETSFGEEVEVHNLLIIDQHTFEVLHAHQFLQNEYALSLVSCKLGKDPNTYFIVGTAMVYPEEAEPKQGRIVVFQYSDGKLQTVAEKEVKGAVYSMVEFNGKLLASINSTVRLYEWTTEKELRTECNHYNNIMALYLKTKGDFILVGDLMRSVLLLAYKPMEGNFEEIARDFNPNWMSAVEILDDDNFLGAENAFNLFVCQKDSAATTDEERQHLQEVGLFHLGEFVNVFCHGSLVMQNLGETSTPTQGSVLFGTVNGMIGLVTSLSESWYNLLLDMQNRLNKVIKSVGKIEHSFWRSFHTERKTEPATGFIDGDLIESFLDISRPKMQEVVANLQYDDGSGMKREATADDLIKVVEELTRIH
Kind of experiment: HiBiT protein tagging assay, in vitro IKZF2 degradation (HEK293). It is filed as cell-based. To be noted: IKZF2-HiBiT reporter Flp-In T-REx HEK293 cells, doxycycline-induced, compound overnight (18-24 hr), normalized to DMSO control. How it is done:
In vitro degradation of IKZF1 and IKZF2 was measured using HiBiT protein tagging and detection technology (Promega).
HiBiT technology (Promega) was used to develop the quantitative assays to measure the cellular IKZFs level by tagging an 11 amino acid HiBit peptides VSGWRLFKKIS (SEQ ID NO:1) to the protein of interest. Reporter plasmids were generated by fusing a linker sequence (GSSGGSSG; SEQ ID NO:2) followed by the HiBiT tag at the C terminus of IKZF1 and IKZF2. The fusion fragments were subsequently cloned into pcDNA5 pcDNA™5/FRT/TO plasmids (Thermo Fisher, cat #V652020) downstream of the Tetracycline operator. The resulting plasmids were co-transfected with pOG44 Flp-Recombinase Expression Vector (Thermo Fisher, cat #V600520) into Flp-In™ T-REx HEK293 line (Thermo Fisher, cat #R78077) and a stable cell pool was selected by adding 100 μg/ml of Hygromycin (Thermo Fisher, cat #10687010). The reporter cell enabled Tet-On inducible reporter expression from a single copy of the integrated gene.
On Day 1, Cells were grown to ˜80% confluency in TC medium (DMEM Glutamax (Gibco10569), 10% Tet free FBS (Takara 631106), and PenStrep Glutamin (Gibco 10378)) in tissue culture flasks. Doxycycline was then added to a final concentration of 1 μg/ml to induce reporter expression at 37° C. overnight.
On Day 2, 125 nL of serially-diluted solution of testing compounds were dispensed into 384-well white solid assay plates via ECHO acoustic liquid handler. Cells were lifted by 0.25% Trypsin (Gibco 25200) then pelleted by centrifugation (Beckman Avanti J-E) at 500×g for 5 min. Cell pellets were resuspended in TC medium at the concentration of 3e5/mL and 25 μL of cell suspension were added into each well of compound-spotted plates. The plates were returned to a 37° C. incubator overnight (18-24 hr).
On Day 3, assay plates were removed from the TC incubator and 25 μL of Nano-Glo lytic detection system (Promega, cat #N3030) was added to each well. Plates were incubated at r.t. for 3 min with shaking, and luminescence was read using an Envision reader (Perkin Elmer).
All raw data was normalized to DMSO control (final concentration: 0.5%) wells as POC and plotted out for EC50 and Dmax (Maximum degradation at the highest concentration tested in the assay).
For orientation: HiBiT is a short tag that completes a luciferase, so light tracks the accessible tagged protein.
As for `O=C1CCC(N2Cc3cc(O[C@@H]4CN(Cc5ccccc5)CC[C@H]4NCC(F)(F)F)ccc3C2=O)C(=O)N1` (relative stereo) [Example 45, 3-(5-(((3,4-trans)-1-benzyl-4-((2,2,2-trifluoroethyl)amino)piperidin-3-yl)oxy)-1-oxoisoindolin-2-yl)piperidine-2,6-dione], the “IKZF2 Dmax (maximum degradation at the highest concentration tested)” value is given as 44%. For `O=C1CCC(N2Cc3cc(O[C@@H]4CN(Cc5ccccc5)CC[C@H]4NC(=O)NCc4ccccc4)ccc3C2=O)C(=O)N1` (relative stereo) [Example 55, 1-benzyl-3-((3,4-trans)-1-benzyl-3-((2-(2,6-dioxopiperidin-3-yl)-1-oxoisoindolin-5-yl)oxy)piperidin-4-yl)urea], the “IKZF2 Dmax (maximum degradation at the highest concentration tested)” value amounted to 91%.

The experiment is the same for the next values; noted with them: IKZF2-HiBiT reporter Flp-In T-REx HEK293 cells, doxycycline-induced, compound overnight (18-24 hr), normalized to DMSO control; read-out: IKZF2 Dmax (maximum degradation at the highest concentration tested).
For `CS(=O)(=O)NC1CCN(Cc2ccccc2)CC1Oc1ccc2c(c1)CN(C1CCC(=O)NC1=O)C2=O` (stereo not drawn) [Example 47, N-((3,4-trans)-1-benzyl-3-((2-(2,6-dioxopiperidin-3-yl)-1-oxoisoindolin-5-yl)oxy)piperidin-4-yl)methanesulfonamide], the Dmax worked out at 62%. On to `N[C@H]1CCN(Cc2ccccc2)C[C@@H]1Oc1ccc2c(c1)CN(C1CCC(=O)NC1=O)C2=O` (some centres unmarked) [Example 42a], for which the Dmax was 98%. Regarding `O=C1CCC(N2Cc3cc(O[C@H]4CN(Cc5ccccc5)CC[C@@H]4NCc4ccccc4F)ccc3C2=O)C(=O)N1` (mixture of isomers) [Example 28], the Dmax stood at 90%. As to `CCN(CC)C1CCN(Cc2ccccc2)CC1Oc1ccc2c(c1)CN(C1CCC(=O)NC1=O)C2=O` (racemic) [Example 11], the Dmax came out at 90%. Still for that read-out and setting: the figure for `O=C1CCC(N2Cc3cc(O[C@H]4CN(Cc5ccc(F)c(F)c5)CC[C@@H]4NCc4ccccc4)ccc3C2=O)C(=O)N1` (mixture of isomers) [Example 22] is 90%.

In the case of `O=C1CCC(N2Cc3cc(OC4CN(Cc5cccnc5)CCC4NCc4ccccc4)ccc3C2=O)C(=O)N1` (racemic) [Example 7], the Dmax is 92%. `O=C1CCC(N2Cc3cc(OC4CN(Cc5ccccc5)CCC4NCc4ccccc4)ccc3C2=O)C(=O)N1` (racemic) [Example 2]: the Dmax came to 94%. On the same count and under the same terms, the figure for `CCOC1CN(C2CCN(Cc3ccccc3)CC2Oc2ccc3c(c2)CN(C2CCC(=O)NC2=O)C3=O)C1` (racemic) [Example 58] is 96%. In the case of `O=C1CCC(N2Cc3cc(O[C@H]4CN(Cc5ccccc5Cl)CC[C@@H]4NCc4ccccc4)ccc3C2=O)C(=O)N1` (mixture of isomers) [Example 3], the Dmax is 85%.

Regarding `O=C1CCC(N2Cc3cc(O[C@@H]4CN(CC(F)(F)F)CC[C@H]4NCc4ccccc4)ccc3C2=O)C(=O)N1` (relative stereo) [Example 40, 3-(5-((trans-4-(benzylamino)-1-(2,2,2-trifluoroethyl)piperidin-3-yl)oxy)-1-oxoisoindolin-2-yl)piperidine-2,6-dione], the Dmax is 57%. For `O=C1CCC(N2Cc3cc(OC4CN(Cc5ccccc5)CCC4NCc4cccnc4)ccc3C2=O)C(=O)N1` (racemic) [Example 14], the Dmax was determined as 91%.

On to `O=C1CCC(N2Cc3cc(O[C@H]4CN(Cc5c(F)cccc5F)CC[C@@H]4NCc4ccccc4)ccc3C2=O)C(=O)N1` (mixture of isomers) [Example 24], for which the Dmax amounted to 93%.

Regarding `O=C1CCC(N2Cc3cc(OC4CN(Cc5ccccc5)CCC4Nc4ccccc4)ccc3C2=O)C(=O)N1` (stereo not drawn) [Example 43, 3-(5-(((3,4-trans)-1-benzyl-4-(phenylamino)piperidin-3-yl)oxy)-1-oxoisoindolin-2-yl)piperidine-2,6-dione], the Dmax came to 48%. Still for that read-out and setting: with `CCNC1CCN(Cc2ccccc2)CC1Oc1ccc2c(c1)CN(C1CCC(=O)NC1=O)C2=O` (racemic) [Example 12] the figure was 97%. On the same count and under the same terms, with `O=C1CCC(N2Cc3cc(OC4CN(Cc5ccccc5)CCC4NCC4CC4)ccc3C2=O)C(=O)N1` (racemic) [Example 37] the figure was 98%. On the same count and under the same terms, the figure for `O=C1CCC(N2Cc3cc(OC4CN(Cc5ccccc5)CCC4NCCF)ccc3C2=O)C(=O)N1` (racemic) [Example 59] is 86%; for `O=C1CCC(N2Cc3cc(O[C@H]4CN(Cc5ccccc5)CC[C@@H]4NCc4ccccc4)ccc3C2=O)C(=O)N1` (some centres unmarked) [Example 2a] it is 97%. As to `N[C@@H]1CCN(Cc2ccccc2)C[C@H]1Oc1ccc2c(c1)CN(C1CCC(=O)NC1=O)C2=O` (relative stereo) [Example 42, 3-(5-((trans-4-amino-1-benzylpiperidin-3-yl)oxy)-1-oxoisoindolin-2-yl)piperidine-2,6-dione], the Dmax was found to be 96%. Consider `N#Cc1ccc(CN2CC[C@H](NCc3ccccc3)[C@@H](Oc3ccc4c(c3)CN(C3CCC(=O)NC3=O)C4=O)C2)cc1` (mixture of isomers) [Example 32], for which the Dmax was 94%. `CCN(CC)C1CCN(Cc2ccc3ccccc3c2)CC1Oc1ccc2c(c1)CN(C1CCC(=O)NC1=O)C2=O` (racemic) [Example 57]: the Dmax was found to be 98%. In the case of `CC(C)N[C@H]1CCN(Cc2ncco2)C[C@@H]1Oc1ccc2c(c1)CN(C1CCC(=O)NC1=O)C2=O` (some centres unmarked) [Example 67], the Dmax is 64%. On the same count and under the same terms, the figure for `O=C1CCC(N2Cc3cc(O[C@H]4CN(Cc5ccc(F)cc5)CC[C@@H]4NCc4ccccc4)ccc3C2=O)C(=O)N1` (mixture of isomers) [Example 18] is 97%; for `O=C1CCC(N2Cc3cc(OC4CN(Cc5ccccn5)CCC4NCc4ccccc4)ccc3C2=O)C(=O)N1` (racemic) [Example 8] it is 64%; for `CC(C)N1CCC(NCc2ccccc2)C(Oc2ccc3c(c2)CN(C2CCC(=O)NC2=O)C3=O)C1` (racemic) [Example 5] it is 47%. Same read-out and setting: the figure for `O=C1CCC(N2Cc3cc(OC4CN(Cc5ccccc5)CCC4NCc4ccccn4)ccc3C2=O)C(=O)N1` (racemic) [Example 13] is 84%. For the molecule `COc1ccc(CN2CC[C@H](NCc3ccccc3)[C@@H](Oc3ccc4c(c3)CN(C3CCC(=O)NC3=O)C4=O)C2)cc1` (mixture of isomers) [Example 33], the Dmax came to 94%. On to `O=C1CCC(N2Cc3cc(OC4CN(Cc5ccccc5)CCC4NCc4ccncc4)ccc3C2=O)C(=O)N1` (racemic) [Example 15], for which the Dmax was 73%. Still for that read-out and setting: the figure for `O=C1CCC(N2Cc3cc(OC4CN(Cc5ccccc5)CCC4NCCc4ccccc4)ccc3C2=O)C(=O)N1` (racemic) [Example 35] is 98%; for `O=C1CCC(N2Cc3cc(O[C@H]4CN(Cc5cc(F)cc(F)c5)CC[C@@H]4NCc4ccccc4)ccc3C2=O)C(=O)N1` (mixture of isomers) [Example 25] it is 75%; for `O=C1CCC(N2Cc3cc(O[C@H]4CN(Cc5cccc(F)c5)CC[C@@H]4NCc4ccccc4)ccc3C2=O)C(=O)N1` (mixture of isomers) [Example 19] it is 89%.

For `O=C1CCC(N2Cc3cc(O[C@H]4CN(Cc5cccc(F)c5F)CC[C@@H]4NCc4ccccc4)ccc3C2=O)C(=O)N1` (mixture of isomers) [Example 20], the Dmax is 86%. Same read-out and setting: with `O=C1CCC(N2Cc3cc(O[C@H]4CN(Cc5ccc(C(F)(F)F)cc5)CC[C@@H]4NCc4ccccc4)ccc3C2=O)C(=O)N1` (mixture of isomers) [Example 34] the figure was 80%; with `CCN1CCC(NCc2ccccc2)C(Oc2ccc3c(c2)CN(C2CCC(=O)NC2=O)C3=O)C1` (racemic) [Example 4], 51%. In the case of `O=C1CCC(N2Cc3cc(O[C@H]4CN(Cc5ccc(-c6ccccc6)cc5)CC[C@@H]4NCc4ccccc4)ccc3C2=O)C(=O)N1` (mixture of isomers) [Example 31], the Dmax was determined as 101%.

Consider `CC(C)CN1CCC(NCc2ccccc2)C(Oc2ccc3c(c2)CN(C2CCC(=O)NC2=O)C3=O)C1` (racemic) [Example 6], for which the Dmax worked out at 35%. On the same count and under the same terms, with `CCN[C@H]1CCN(Cc2ccc(F)cc2F)C[C@@H]1Oc1ccc2c(c1)CN(C1CCC(=O)NC1=O)C2=O` (mixture of isomers) [Example 38] the figure was 97%. `CC(=O)NC1CCN(Cc2ccccc2)CC1Oc1ccc2c(c1)CN(C1CCC(=O)NC1=O)C2=O` (stereo not drawn) [Example 48, N-((3,4-trans)-1-benzyl-3-((2-(2,6-dioxopiperidin-3-yl)-1-oxoisoindolin-5-yl)oxy)piperidin-4-yl)acetamide]: the Dmax came to 69%. Still for that read-out and setting: the figure for `O=C1CCC(N2Cc3cc(O[C@H]4CN(CCC(F)(F)F)CC[C@@H]4NCc4ccccc4)ccc3C2=O)C(=O)N1` (mixture of isomers) [Example 52] is 27%; for `O=C1CCC(N2Cc3cc(O[C@H]4CN(CCF)CC[C@@H]4NCc4ccccc4)ccc3C2=O)C(=O)N1` (mixture of isomers) [Example 53] it is 77%.
